Measurements reported in ChEMBL document CHEMBL1201862, “PubChem BioAssay data set” (2004).
Each block holds one molecule with its values, some of them ahead of it. Activity calls are given as the source filed them.

How the values were obtained:
[1] = HEp-2 cell cytotoxicity, dose response, cytotoxicity control for RSV inhibitor project, HTS (AID 2410); type: functional; details: human respiratory syncytial virus
[2] = C. albicans growth with fluconazole, confirmation, fluorescence, retest (AID 2467); type: functional, cell-based
[3] = NIH-3T3 fibroblast cytotoxicity, dose response, cytotoxicity control, cell-based, fluorescence, Alamar Blue, secondary assay (AID 2327); type: functional;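 also: NIH-3T3 mouse fibroblasts cultured with fluconazole at 8 µg/mL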
[4] = molecular target: FAD-linked sulfhydryl oxidase ALR (Homo sapiens, UniProt P55789); test: inhibitors of human ALR sulfhydryl oxidase, dose response, biochemical, H2O2 detection, luminescence, cherry-pick (AID 493248)
FAD-linked sulfhydryl oxidase ALR, sequence (P55789 whole entry): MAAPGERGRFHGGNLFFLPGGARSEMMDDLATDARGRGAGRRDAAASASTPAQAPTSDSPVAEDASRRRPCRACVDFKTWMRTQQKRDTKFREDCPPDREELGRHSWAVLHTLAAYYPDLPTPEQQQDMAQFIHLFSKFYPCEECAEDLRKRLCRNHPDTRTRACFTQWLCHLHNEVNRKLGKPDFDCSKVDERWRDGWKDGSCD

Cytochrome P450 3A4 = Cytochrome P450 3A4 (Homo sapiens, UniProt P08684);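 also: CYP3A4 tested as one member of a cytochrome P450 panel screen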
Cytochrome P450 3A4, sequence (P08684 whole entry): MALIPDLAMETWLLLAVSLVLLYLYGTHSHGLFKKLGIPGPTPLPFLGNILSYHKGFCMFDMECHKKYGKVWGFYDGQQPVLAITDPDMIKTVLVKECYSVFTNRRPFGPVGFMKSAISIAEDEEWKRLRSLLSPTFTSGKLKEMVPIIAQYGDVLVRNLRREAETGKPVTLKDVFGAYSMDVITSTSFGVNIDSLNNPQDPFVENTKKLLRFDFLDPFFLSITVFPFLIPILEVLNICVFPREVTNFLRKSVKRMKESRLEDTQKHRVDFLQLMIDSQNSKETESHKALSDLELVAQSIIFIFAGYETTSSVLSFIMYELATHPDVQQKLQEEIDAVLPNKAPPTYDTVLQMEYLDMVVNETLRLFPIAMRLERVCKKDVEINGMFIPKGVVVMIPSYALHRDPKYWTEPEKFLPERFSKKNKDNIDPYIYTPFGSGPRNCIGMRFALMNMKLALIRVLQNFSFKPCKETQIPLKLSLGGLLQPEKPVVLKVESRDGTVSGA

Cytochrome P450 2C19 = Cytochrome P450 2C19 (Homo sapiens, UniProt P33261); test: Cytochrome panel assay with activity outcomes. Panel member name: p450-cyp2c19 Compounds with AC50 equal or less than 10 uM are considered active; type: functional; details: read-out: AC50
Cytochrome P450 2C19, sequence (P33261 whole entry): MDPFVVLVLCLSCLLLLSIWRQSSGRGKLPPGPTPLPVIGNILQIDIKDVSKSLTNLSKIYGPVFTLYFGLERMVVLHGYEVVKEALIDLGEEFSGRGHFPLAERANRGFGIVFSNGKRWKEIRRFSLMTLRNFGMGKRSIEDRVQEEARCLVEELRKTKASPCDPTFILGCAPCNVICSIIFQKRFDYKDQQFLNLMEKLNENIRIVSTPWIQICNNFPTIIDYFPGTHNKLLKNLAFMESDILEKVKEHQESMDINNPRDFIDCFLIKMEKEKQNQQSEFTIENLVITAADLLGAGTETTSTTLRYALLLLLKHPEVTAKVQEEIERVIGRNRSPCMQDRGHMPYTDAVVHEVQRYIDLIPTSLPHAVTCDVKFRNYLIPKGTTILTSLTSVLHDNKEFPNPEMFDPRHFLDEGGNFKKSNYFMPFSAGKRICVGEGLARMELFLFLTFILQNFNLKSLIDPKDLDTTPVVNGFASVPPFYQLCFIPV

[5] = inhibitors of intracellular T. cruzi replication, confirmation, NIH3T3 host cells, beta-gal luminescence (AID 2044); type: functional, cell-based;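 also: intracellular parasites grown in NIH/3T3 mouse fibroblasts as host cells; luminescent beta-galactosidase reporter signal from transgenic T. cruzi replicating inside host cells; inhibitors lower the luminescence signal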
[6] = cytotoxicity toward NIH3T3 fibroblasts, dose response, counter-screen, cell-based, ATP luminescence, mouse fibroblasts (AID 2010); type: functional;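 also: cells exposed to compound for about 90 hours before reading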
H9c2 = test: cells; type: functional, cell-based; details: Rattus norvegicus, H9c2, Myocardium;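 also: confirmatory concentration-response retest of ultra-high-throughput screening hits for modulation of myocardial damage; cell death induced by hydrogen peroxide oxidative stress; compound pretreatment for 60 min then peroxide exposure for 2 h; potency is for protecting the cells against peroxide damage rather than for killing them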
[7] = molecular target: T1, Rac GTPase-activating protein 1 (Homo sapiens, UniProt Q9H0H5); test: MgcRacGAP GTPase-activating activity inhibitors, confirmation, biochemical, ADP Hunter fluorescence, primary and confirmatory (AID 624330); type: functional
T1 sequence (Q9H0H5 whole entry): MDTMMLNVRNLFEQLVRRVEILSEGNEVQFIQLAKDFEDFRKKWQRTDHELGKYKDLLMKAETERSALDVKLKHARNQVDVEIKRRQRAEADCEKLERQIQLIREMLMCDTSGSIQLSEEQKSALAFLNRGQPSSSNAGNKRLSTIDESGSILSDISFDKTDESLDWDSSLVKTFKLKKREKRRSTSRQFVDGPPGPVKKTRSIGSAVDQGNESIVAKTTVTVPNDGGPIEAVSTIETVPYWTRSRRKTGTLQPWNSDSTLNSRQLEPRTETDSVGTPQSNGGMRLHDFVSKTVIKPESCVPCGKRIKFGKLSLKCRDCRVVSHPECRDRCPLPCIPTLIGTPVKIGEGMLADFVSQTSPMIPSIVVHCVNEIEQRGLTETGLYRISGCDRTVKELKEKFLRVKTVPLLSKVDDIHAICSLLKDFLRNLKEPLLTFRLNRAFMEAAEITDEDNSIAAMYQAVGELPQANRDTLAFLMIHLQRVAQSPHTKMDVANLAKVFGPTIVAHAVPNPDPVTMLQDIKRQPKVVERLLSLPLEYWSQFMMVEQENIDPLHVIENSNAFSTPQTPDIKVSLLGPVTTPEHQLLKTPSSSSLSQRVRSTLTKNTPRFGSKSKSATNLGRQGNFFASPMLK

[8] = P. falciparum Dd2 growth inhibitors, dose response, SYBR Green, cherry-picked samples (AID 1159567); type: functional, cell-based

Structure (SMILES): Cc1cc(SCC(=O)Nc2cccc(S(=O)(=O)NC3=NCCCCC3)c2)nc2ccccc12
CC50 [1]: 40.6 µM (active)

Structure (SMILES): CC(=O)C1=C(C)NC(SCC(=O)c2cc(Cl)ccc2Cl)=C(C#N)C1c1ccco1 (stereo not given)
CC50 [1]: 14.2 µM (active)

Structure (SMILES): N#Cc1ccc(NC(=O)CN2C(=O)NC3(CCCCCCC3)C2=O)cc1Cl
CC50 [1]: 30.3 µM (active)

Structure (SMILES): O=S(=O)(c1ccc(F)cc1)N1CCC(c2nc(O)c3nnn(Cc4ccc5c(c4)OCCO5)c3n2)CC1
CC50 [1]: 19.6 µM (active)

Structure (SMILES): CCc1nn(CCCC(=O)NCc2ccc(C)cc2)c(=O)c2cc3occc3n12
EC50 [2]: > 38 µM (not active)
EC50 [3]: > 160 µM (inconclusive)

AC50 [4]: 1.83 µM (active)
Structure (SMILES): O=C(Nc1cccs1)NC1CCCC1

Structure (SMILES): O=C(CCCN1C(=O)c2cccc3cccc(c23)C1=O)N1CCN(c2ccc(F)cc2)CC1
CC50 [1]: 46.2 µM (active)

Structure (SMILES): COc1cccc(-c2cc3nc(-c4ccccc4)cc(N4CCC5(CC4)OCCO5)n3n2)c1
AC50 (Cytochrome P450 3A4): 20 µM (inconclusive)
AC50 (Cytochrome P450 2C19): 2 µM (inconclusive)
EC50 [5]: 1.82 µM (active)
EC50 [6]: > 30 µM (not active)

Structure (SMILES): CCOc1ccc(S(=O)(=O)N(C)CCO)cc1-c1nc(O)c2c(n1)c(C(C)(C)C)nn2C
IC50 (H9c2): > 79 µM (inactive)

AC50 [4]: 5.05 µM (active)
Structure (SMILES): CCN(CC)c1ccc(NC(=O)C2=CCN(S(=O)(=O)c3ccc(F)cc3)CC2)c(C)c1

Structure (SMILES): O=C(N(c1ccccc1)c1ccccc1)N(c1ccccc1)c1ccccc1
CC50 [1]: 17 µM (active)

AC50 [4]: 26.2 µM (active)
Structure (SMILES): Cc1ccc2[nH]cc(CCNC(=O)c3cccs3)c2c1

Structure (SMILES): O=C(COc1cccc2c1CCNC2=O)Nc1ccc(Cl)cc1
IC50 (H9c2): 11.6 µM (active)

Structure (SMILES): FC(F)(F)c1nnc2ccc(N3CCCC3)nn12
IC50 (H9c2): 39.7 µM (inactive)

Structure (SMILES): N=C(NNS(=O)(=O)c1ccccc1)c1ccccn1
IC50 (H9c2): 23.5 µM (active)

Structure (SMILES): COc1ccc(Cl)cc1NC(=O)CN(C)C(=O)Cc1nnc(O)c2ccccc12
IC50 (H9c2): > 79 µM (inactive)

Structure (SMILES): Oc1c(Br)cc(Br)cc1/C=N/c1ccc2c(c1)OCCO2
IC50 (H9c2): 17.6 µM (active)
IC50 [7]: 119 µM (active)

Structure (SMILES): COc1ccc(/N=C/c2cc(Cl)ccc2O)cc1Cl
IC50 (H9c2): 17.5 µM (active)

Structure (SMILES): CC(C)(C)[S@+]([O-])N1Cc2cc(C(=O)N[C@H]3CCN(Cc4ccccc4)C3)nc(-c3cccc(-c4ccncc4)c3)c2[C@@H]1CCO
AC50 [8]: 6.19 µM (active)

Structure (SMILES): O=C(C[n+]1ccccc1)N/N=C/c1cccs1
EC50 [2]: > 38 µM (not active)
EC50 [3]: > 150 µM (inactive)

Structure (SMILES): CO[C@H]1CN(C)C(=O)c2cc(NC(=O)C3CC3)ccc2OC[C@H](C)N(Cc2cc(F)ccc2F)C[C@@H]1C
AC50 [8]: 6.44 µM (active)

Structure (SMILES): CO[C@@H]1CN(C)C(=O)c2ccc(NC(=O)Nc3ccc(C(F)(F)F)cc3)cc2OC[C@@H](C)NC[C@@H]1C
AC50 [8]: 4.23 µM (active)

Structure (SMILES): C[C@H](CO)N1C[C@H](C)[C@@H](CN(C)C(=O)[C@H](C)c2ccccc2)OCc2ccccc2-c2c(n(C)c3ccccc23)C1=O
AC50 [8]: 4.07 µM (active)

Structure (SMILES): CN1c2ccc(C3=CCCCC3)cc2[C@H]2[C@H](CCN2C(=O)C2CC2)[C@@H]1CO
AC50 [8]: 0.964 µM (active)
